Laboratory results taken from patent publication US9944645B2, “Imidazotriazines and imidazopyrimidines as kinase inhibitors” (Incyte Holdings Corporation, priority 2006, dated 2018).

These compounds were tested against c-Met kinase (h-Met; histidine-tagged c-Met catalytic domain fusion protein) (Homo sapiens (Human), UniProt P08581) (assay: In Vitro c-Met Kinase Enzyme Assays). Settings: phosphorylation of poly Glu-Tyr, 5 μM ATP, 25 minutes at 30° C.
Type: biochemical
Protocol: Compounds were screened in vitro for their ability to inhibit c-Met kinase activity. […] Briefly, histidine-tagged c-Met catalytic domain fusion protein (Invitrogen, #PV3143) was used for the assay. […] The reaction lasted for 25 minutes at 30° C. After the reaction was completed, the contents of the plates was discarded. Plates were then washed with TBS-T (250 μL/well, 5×) and then blocked with TBS-T containing 1% BSA for 2 hours. The contents of the plates was discarded, and 100 μL (per well) of peroxidase-labeled anti-phospho-tyrosine antibody (Sigma, #A5964) diluted (1:60,000) in 1% BSA containing TBS-T were then added and incubated for 1 hour. Plates were washed with TBS-T ([…], 5×) and followed by the color reaction using 100 μL (1:1 mixture) of H2O2 and tetramethylbenzidine (R&D Systems, #DY999). The reaction was stopped in minutes with 100 μL of 2 N H2SO4. The optical density was measured immediately using a microplate reader at 450 nm with wavelength correction at 540 nm. IC50 values were calculated with the GraphPad Prism software. The linear range (i.e., the time period over which the rate remained equivalent to the initial rate) was determined for the kinase and IC50 determinations were performed within this range.

Chain of c-Met kinase (h-Met; histidine-tagged c-Met catalytic domain fusion protein) (P08581 1078-1345): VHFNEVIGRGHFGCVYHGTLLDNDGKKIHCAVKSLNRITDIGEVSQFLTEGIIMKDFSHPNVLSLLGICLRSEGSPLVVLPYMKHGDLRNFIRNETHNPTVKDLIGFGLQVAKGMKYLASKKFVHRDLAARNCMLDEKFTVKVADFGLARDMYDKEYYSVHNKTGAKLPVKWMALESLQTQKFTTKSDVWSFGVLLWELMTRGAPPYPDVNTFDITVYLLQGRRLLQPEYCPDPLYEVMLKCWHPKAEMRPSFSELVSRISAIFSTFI

IC50, < 500 nM:
CC(NC(=O)c1ccc(-c2cnc3ncc(C4(c5ccc6ncccc6c5)CC4)n3c2)cc1F)C(=O)N(C)C (stereo not drawn) [Example 199, N-[2-(Dimethylamino)-1-methyl-2-oxoethyl]-2-fluoro-4-[3-(1-quinolin-6-ylcyclopropyl)imidazo[1,2-a]pyrimidin-6-yl]benzamide]
c1cnc2ccc(C3(c4cnc5ncc(-c6cscn6)cn45)CC3)cc2c1 [Example 74, 6-{1-[6-(1,3-Thiazol-4-yl)imidazo[1,2-a]pyrimidin-3-yl]cyclopropyl}quinoline]
O=C(NC1CC1)c1cccc(-c2cnc3ncc(C4(c5ccc6ncccc6c5)CC4)n3c2)c1 [Example 46, N-Cyclopropyl-3-[3-(1-quinolin-6-ylcyclopropyl)imidazo[1,2-a]pyrimidin-6-yl]benzamide]
O=C(NC1CCCCC1)c1cnc2ncc(C3(c4ccc5ncccc5c4)CC3)n2c1 [Example 26, N-Cyclohexyl-3-(1-quinolin-6-ylcyclopropyl)imidazo[1,2-a]pyrimidine-6-carboxamide]
CN(C(=O)c1ccc(-c2cnc3ncc(C4(c5ccc6ncccc6c5)CC4)n3n2)cc1)C1CC1 [Example 114, N-Cyclopropyl-N-methyl-4-[7-(1-quinolin-6-ylcyclopropyl)imidazo[1,2-b][1,2,4]triazin-2-yl]benzamide]
CNC(=O)c1ccc(-c2cnc3ncc(Sc4ccc5ncccc5c4)n3c2)cc1Cl [Example 12, 2-chloro-N-methyl-4-[3-(quinolin-6-ylthio)imidazo[1,2-a]pyrimidin-6-yl]benzamide]
COC(=O)NCc1ccc(-c2cnc3ncc(C4(c5ccc6ncccc6c5)CC4)n3c2)cc1F [Example 66, Methyl 2-fluoro-4-[3-(1-quinolin-6-ylcyclopropyl)imidazo[1,2-a]pyrimidin-6-yl]benzylcarbamate]
N#CCCn1cc(-c2cnc3ncc(Cc4ccc5ncccc5c4)n3n2)cn1 [Example 138, 3-{4-[7-(Quinolin-6-ylmethyl)imidazo[1,2-b][1,2,4]triazin-2-yl]-1H-pyrazol-1-yl}propanenitrile]
CC(C)C[C@H](NC(=O)c1ccc(-c2cnc3ncc(Cc4ccc5ncccc5c4)n3n2)cc1F)C(=O)N(C)C [Example 134, N-{(1S)-1-[(Dimethylamino)carbonyl]-3-methylbutyl}-2-fluoro-4-[7-(quinolin-6-ylmethyl)imidazo[1,2-b][1,2,4]triazin-2-yl]benzamide]
O=C(NC1CC1)c1ccc(-c2cnc3ncc(Cc4ccc5ncccc5c4)n3n2)cc1F [Example 123, N-Cyclopropyl-2-fluoro-4-[7-(quinolin-6-ylmethyl)imidazo[1,2-b][1,2,4]triazin-2-yl]benzamide]
CCN1Cc2cc(-c3cnc4ncc(C5(c6ccc7ncccc7c6)CC5)n4c3)ccc2C1=O [Example 183, 2-Ethyl-5-[3-(1-quinolin-6-ylcyclopropyl)imidazo[1,2-a]pyrimidin-6-yl]isoindolin-1-one]
O=C(NCCOc1ccccn1)c1ccc(-c2cnc3ncc(C4(c5ccc6ncccc6c5)CC4)n3c2)cc1 [Example 40, N-[2-(Pyridin-2-yloxy)ethyl]-4-[3-(1-quinolin-6-ylcyclopropyl)imidazo[1,2-a]pyrimidin-6-yl]benzamide]
c1cnc2ccc(C3(c4cnc5ncc(-c6cnn(C7CCOC7)c6)cn45)CC3)cc2c1 (stereo not drawn) [Example 88, 6-(1-{6-[1-(Tetrahydrofuran-3-yl)-1H-pyrazol-4-yl]imidazo[1,2-a]pyrimidin-3-yl}cyclopropyl)quinoline]
NC(=O)c1ccc(-c2cnc3ncc(C4(c5ccc6ncccc6c5)CC4)n3c2)cc1F [Example 172, 2-Fluoro-4-[3-(1-quinolin-6-ylcyclopropyl)imidazo[1,2-a]pyrimidin-6-yl]benzamide]
Cc1nc(-c2cnc3ncc(C4(c5ccc6ncccc6c5)CC4)n3c2)cs1 [Example 73, 6-{1-[6-(2-Methyl-1,3-thiazol-4-yl)imidazo[1,2-a]pyrimidin-3-yl]cyclopropyl}quinoline]
CS(=O)(=O)N1CCN(c2ccc(-c3cnc4ncc(C5(c6ccc7ncccc7c6)CC5)n4c3)cn2)CC1 [Example 54, 6-[1-(6-{6-[4-(Methylsulfonyl)piperazin-1-yl]pyridin-3-yl}imidazo[1,2-a]pyrimidin-3-yl)cyclopropyl]quinoline]
CNC(=O)[C@@H](C)NC(=O)c1ccc(-c2cnc3ncc(C4(c5ccc6ncccc6c5)CC4)n3c2)cc1 [Example 51, N-[(1R)-1-Methyl-2-(methylamino)-2-oxoethyl]-4-[3-(1-quinolin-6-ylcyclopropyl)imidazo[1,2-a]pyrimidin-6-yl]benzamide]
CC(COc1ccccn1)NC(=O)C1(c2ccc(-c3cnc4ncc(C5(c6ccc7ncccc7c6)CC5)n4c3)cc2)CC1 (stereo not drawn) [Example 189, N-[1-Methyl-2-(pyridin-2-yloxy)ethyl]-1-{4-[3-(1-quinolin-6-ylcyclopropyl)imidazo[1,2-a]pyrimidin-6-yl]phenyl}cyclopropanecarboxamide]
CC(C)C[C@@H](NC(=O)c1ccc(-c2cnc3ncc(Cc4ccc5ncccc5c4)n3n2)cc1F)C(=O)N1CCC1 [Example 137, N-[(1R)-1-(Azetidin-1-ylcarbonyl)-3-methylbutyl]-2-fluoro-4-[7-(quinolin-6-ylmethyl)imidazo[1,2-b][1,2,4]triazin-2-yl]benzamide]
Fc1ccc(-c2cnc3ncc(C4(c5ccc6ncccc6c5)CC4)n3n2)cc1 [Example 3, 6-(1-(2-(4-Fluorophenyl)imidazo[1,2-b][1,2,4]-triazin-7-yl)cyclopropyl)quinoline]
C[C@H](COC(=O)N(C)C)NC(=O)c1ccc(-c2cnc3ncc(C4(c5ccc6ncccc6c5)CC4)n3n2)cc1 [Example 121]
N#CCn1cc(-c2cnc3ncc(Cc4ccc5ncccc5c4)n3n2)cn1 [Example 139, 4-[7-(Quinolin-6-ylmethyl)imidazo[1,2-b][1,2,4]triazin-2-yl]-1H-pyrazol-1-ylacetonitrile]
CC(NC(=O)c1ccc(-c2cnc3ncc(C4(c5ccc6ncccc6c5)CC4)n3c2)cc1F)C(=O)N1CCC1 (stereo not drawn) [Example 200, N-(2-Azetidin-1-yl-1-methyl-2-oxoethyl)-2-fluoro-4-[3-(1-quinolin-6-ylcyclopropyl)imidazo[1,2-a]pyrimidin-6-yl]benzamide]
c1cnc2ccc(C3(c4cnc5ncc(-n6cccn6)cn45)CC3)cc2c1 [Example 22, 6-{1-[6-(1H-Pyrazol-1-yl)imidazo[1,2-a]pyrimidin-3-yl]cyclopropyl}quinoline]
CN(C)C(=O)Cn1ccc(-c2cnc3ncc(C4(c5ccc6ncccc6c5)CC4)n3c2)n1 [Example 197, N,N-Dimethyl-2-{3-[3-(1-quinolin-6-ylcyclopropyl)imidazo[1,2-a]pyrimidin-6-yl]-1H-pyrazol-1-yl}acetamide]
OC1CCC(n2cc(-c3cnc4ncc(C5(c6ccc7ncccc7c6)CC5)n4c3)cn2)CC1 (stereo not drawn) [Example 92, 4-{4-[3-(1-Quinolin-6-ylcyclopropyl)imidazo[1,2-a]pyrimidin-6-yl]-1H-pyrazol-1-yl}cyclohexanol]
CNC(=O)[C@@H](NC(=O)c1ccc(-c2cnc3ncc(C4(c5ccc6ncccc6c5)CC4)n3c2)cc1)C(C)(C)C [Example 43, N-(1S)-2,2-Dimethyl-1-[(methylamino)carbonyl]propyl-4-[3-(1-quinolin-6-ylcyclopropyl)imidazo[1,2-a]pyrimidin-6-yl]benzamide]
CC(COc1ccccn1)NC(=O)c1ccc(-c2cnc3ncc(C4(c5ccc6ncccc6c5)CC4)n3c2)cc1 (stereo not drawn) [Example 41, N-[1-Methyl-2-(pyridin-2-yloxy)ethyl]-4-[3-(1-quinolin-6-ylcyclopropyl)imidazo[1,2-a]pyrimidin-6-yl]benzamide]
O=C(c1ccc(-c2cnc3ncc(C4(c5ccc6ncccc6c5)CC4)n3c2)cc1)N1CC[C@H](Oc2ccccn2)C1 [Example 39, 6-{1-[6-(4-[(3S)-3-(Pyridin-2-yloxy)pyrrolidin-1-yl]carbonylphenyl)imidazo[1,2-a]pyrimidin-3-yl]cyclopropyl}quinoline]
CNC(=O)c1ccc(-c2cnc3ncc(C4(c5ccc6ncccc6c5)CC4)n3c2)cc1F [Example 18, 2-Fluoro-N-methyl-4-[3-(1-quinolin-6-ylcyclopropyl)imidazo[1,2-a]pyrimidin-6-yl]benzamide]
CNS(=O)(=O)c1ccc(-c2cnc3ncc(C4(c5ccc6ncccc6c5)CC4)n3c2)cc1F [Example 196, 2-Fluoro-N-methyl-4-[3-(1-quinolin-6-ylcyclopropyl)imidazo[1,2-a]pyrimidin-6-yl]benzenesulfonamide]
N#CC1(c2ccc(-c3cnc4ncc(C5(c6ccc7ncccc7c6)CC5)n4c3)cc2)CC1 [Example 64, 1-{4-[3-(1-Quinolin-6-ylcyclopropyl)imidazo[1,2-a]pyrimidin-6-yl]phenyl}cyclopropanecarbonitrile]
O=C(c1ccc(-c2cnc3ncc(C4(c5ccc6ncccc6c5)CC4)n3c2)c(F)c1)N1CC[C@H](O)C1 [Example 76, (3S)-1-{3-Fluoro-4-[3-(1-quinolin-6-ylcyclopropyl)imidazo[1,2-a]pyrimidin-6-yl]benzoyl}pyrrolidin-3-ol]
